Tests used:
Assay type in all cases: cell-based
[1] = tested on: hepatoma cells (Hep3B, HepG2); test: Cell cycle analysis (propidium iodide, FACS); details: 4 hr treatment, FIGS. 25 and 26
Method: (§1) To analyze the effects of combi 4 and combi 5 bound with three or five gemcitabines on the cell cycle of hepatoma cells, cell cycle analysis was performed. In detail, Hep3B, HepG2, and A431 cells were seeded in a 6-well plate at a density of 1×10^6/ml, and cultured using a DMEM medium containing 10% FBS and 1% antibiotics (penicillin/streptomycin) under conditions of 5% CO2 and 37° C., respectively. Next day, 100 μM of the modified aptamer stock was mixed with 5×SB18 buffer to prepare the aptamer at a concentration of 80 μM, and heated at 95° C. for 5 min, and then cooled at room temperature for 15 min or more. The medium was removed from the cultured cells, and replaced by a serum-free medium, and cultured under conditions of 37° C. and 5% CO2 for 1 hr. The serum-free medium was removed, and then the cells were washed with 2 ml of 1×PBS. 2 ml of KRPH buffer was added, and cultured under conditions of 37° C. and 5% CO2 for 1 hr. The aptamer was added, and cultured under conditions of 37° C. and 5% CO2 for 4 hr. The KRPH buffer was removed, and 2 ml of 1×PBS was added thereto to perform washing, and then PBS was removed. 2 ml of 1×PBS was added, and cells were scraped using a scraper, and collected in FACs tubes, followed by centrifugation at 4° C. and 2000 rpm for 4 minutes. 1/500-fold diluted RNAase A and propidium iodide diluted with PBS at a concentration of 50 μg/ml were added to the FACs tubes at a volume of 500 μL, followed by pipetting. Incubation was performed at room temperature for 30 min while blocking the light, and then cell cycle was measured.

[2] = tested on: squamous cell carcinoma cells (A431); test: Cell cycle analysis (propidium iodide, FACS); details: 4 hr treatment, FIG. 27
Method: as §1

[3] = tested on: GPC3-expressing hepatoma cells; test: Cell-killing effect (CCK-8) of gemcitabine-bound combi aptamers; details: FIG. 23 and FIG. 24
Method: In detail, Huh-7 cells (ATCC, Rockville, MD, USA) were seeded in a 96-well plate at a density of 1×10^4/mL, and cultured using a DMEM (Gibco, Grand Island, NY, USA) medium containing 10% FBS (Gibco, Grand Island, NY, USA) and 1% antibiotics (penicillin/streptomycin) under conditions of 5% CO2 and 37° C. Next day, the aptamer stock (100 μM) was mixed with 5×SB18 buffer to prepare the stock at a concentration of 80 μM, and heated at 95° C. for 5 min, and then cooled at room temperature for 15 min or more. The medium was removed from the cultured cells, and 100 μL of a serum-free medium was added thereto, and cultured under conditions of 37° C. and 5% CO2 for 1 hr. The serum-free medium was removed, and then the cells were washed with 100 μL of 1×PBS. 100 μL of KRPH buffer was added, and cultured under conditions of 37° C. and 5% CO2 for 1 hr. The aptamer was diluted with KRPH buffer to 2-fold of the desired concentration, and added to a 96-well plate at 1× concentration, and cultured under conditions of 37° C. and 5% CO2 for 4 hr. After treatment with the aptamer, the KRPH buffer was removed, and then 100 μL of culture medium was added and cultured under conditions of 37° C. and 5% CO2 for […]. 6 days later, 10 μL of a kit solution of CCK-8 (Cell Counting Kit-8) was added to each well, and then cultured under conditions of 37° C. and 5% CO2 for 3 hr. Cell death levels were examined at […] using a microplate reader.

[4] = tested on: Huh 7 cells; test: Cell binding analysis of Cy5-labeled aptamers (FACS); details: three vs five gemcitabines bound, method of Example 2-1, FIG. 19
Method: (§2) The 12-10 aptamer and 5 aptamer libraries prepared by truncating the 12-10 aptamer at various lengths [12-10 (40-mer), 12-12 (35-mer), 12-11 (29-mer), 12-13 (24-mer), 12-14 (23-mer), 12-15 (18-mer)] were subjected to cell binding analysis. Each aptamer sequence was labeled with Cy5 at the 5′ end thereof according to the method of Example 1-1. Huh 7 cells (ATCC, Rockville, MD, USA) were seeded at a density of 2×10^6/mL in a 100 mm^2 culture plate, and cultured using a DMEM medium (Gibco, Grand Island, NY, USA) containing 10% FBS (Gibco, Grand Island, NY, USA) and 1% antibiotics (penicillin/streptomycin) under conditions of 5% CO2 and 37° C. 5 μM of the aptamer stock was mixed with 5×SB18 buffer to prepare the aptamer at a concentration of 4 μM, and heated at 95° C. for 5 min, and then cooled at room temperature for 15 min or more. 4 μM of the aptamer was diluted with KRPH buffer (20 mM HEPES, 5 mM KH2PO4, 1 mM MgSO4, 1 mM CaCl2, 136 mM NaCl, 4.7 mM KCl, pH 7.4) at a concentration of 25 nM. The culture medium was removed from the cultured cells, and 4 mL of phosphate-buffered saline (PBS) was added thereto, followed by washing, and then 4 mL of PBS was removed. 4 mL of cold PBS or warm PBS was added, and cells were scraped using a scraper, and collected in tubes, followed by pipetting. The cells were divided and added to fluorescence-activated cell sorting (FAC) tubes according to the number of samples, followed by centrifugation at 4° C. and 2000 rpm for 4 min. After removing the supernatant, each 500 μL of 25 nM aptamer and control (31-08 (40-mer) aptamer) were added to 15 mL of KRPH buffer, followed by pipetting. The tube was covered with foil to block the light, followed by incubation at 4° C. for 30 min. After incubation, centrifugation was performed at 4° C. and 2000 rpm for 4 min, and the supernatant was removed. 2 mL of cold 1×PBS was added, washed, centrifuged at 4° C. and 2000 rpm for 4 min, and the supernatant was removed. This process was repeated three times. […] Cy5 was measured at […]. […]

[5] = tested on: HepG2; test: Cellular internalization of gemcitabine-bound chemically optimized aptamers; details: analysis in HepG2 and A431 cells, FIGS. 20 to 22
Method: [The source words this procedure for another cell line and reports this cell line under the same test.] 5 aptamer libraries prepared by truncating the 12-10 aptamer at various lengths [12-12 (35-mer), 12-11 (29-mer), 12-13 (24-mer), 12-14 (23-mer), and 12-15 (18-mer)] were subjected to cellular internalization analysis. In detail, a 6-well plate was prepared, and a round cover glass was placed in the 6-well plate. Huh-7 cells were cultured in the 6-well plate according to the method of Example 1-3. 5 μM of the aptamer stock was mixed with 5×SB18 buffer to prepare the aptamer at a concentration of 4 μM, and heated at 95° C. for 5 min, and then cooled at room temperature for 15 min or more. The next day, the medium was removed from the cultured cells, and a serum-free medium was added thereto, and cultured under conditions of 37° C. and 5% CO2 for 1 hr. The serum-free medium was removed, and then the cells were washed with 2 mL of 1×PBS. KRPH buffer was added, and cultured under conditions of 37° C. and 5% CO2 for 1 hr. 4 μM aptamer was diluted to 25 nM, and then cultured under conditions of 37° C. and 5% CO2 for 1 hr or 4 hr. Washing was repeated three times with 2 mL of 1×PBS. Washing was performed in a shaker at room temperature for 10 min while blocking the light. Thereafter, the cells were fixed by treatment with 4% paraformaldehyde at 4° C. for 10 min. Washing was repeated three times with 2 mL of 1×PBS. […]

[6] = tested on: HepG2 cell; test: Cell binding analysis of chemically optimized aptamers; details: combi 1 to combi 5, FIG. 16
Method: [The source words this procedure for another cell line and reports this cell line under the same test.] as §2, with “4 mL of cold PBS or warm PBS was added, and cells were scraped using a scraper, and collected in tubes, followed by pipetting.” left out, “min.” for “min. After removing the supernatant, each 500 μL of 25 nM aptamer and control (31-08 (40-mer) aptamer) were added to 15 mL of KRPH buffer, followed by pipetting. The tube was covered with foil to block the light, followed by incubation at 4° C. for 30 min. After incubation, centrifugation was performed at 4° C. and 2000 rpm for 4 min, and the supernatant was removed. 2 mL of cold 1×PBS was added, washed, centrifuged at 4° C. and 2000 rpm for 4 min, and the supernatant was removed. This process was repeated three times.”

[7] = tested on: Hep3B; test: Cellular internalization of chemically optimized aptamers (FIG. 17A); details: combi 1 to combi 5, FIG. 17A

Row | Substance | cell cycle arrest [1] | cell cycle arrest [2] | concentration from which a cell-killing effect is shown [3] [nM] | cell binding ability [4] | cellular internalization [5] | HepG2 cell binding [6] | Hep3B cellular internalization [7]
1 | Combi 4 G(3) (DNA GNGAANGCGNNGAANNANGYSSSNNCAGNCANCAC; gemcitabines, 2'-OMe, 2'-F, BzdU, 3' idT; Combi 4 G(3); (1)..(1) G is 2-O-Methoxy-DNA.; (2)..(2) n is BzdU.; (3)..(3) G is 2-O-Methoxy-DNA.; (4)..(4) A is 2-Fluorine-DNA.; (5)..(5) A is 2-Fluorine-DNA.; (6)..(6) n is BzdU.; (10)..(10) n is BzdU.; (11)..(11) n is BzdU.; (12)..(12) G is 2-Fluorine-DNA.; (13)..(13) A is 2-Fluorine-DNA.; (14)..(14) A is 2-Fluorine-DNA.; (15)..(15) n is BzdU.; (16)..(16) n is BzdU.; (17)..(17) A is 2-Fluorine-) | arrested hepatoma cells at the G1/S phase | no cell cycle arrest | 100 | excellent cell binding ability | excellent cellular internalization |  | 
2 | Combi 5: SEQ ID NO: 14, chemically optimized 12-12 aptamer (G_{Me}nG_{Me}A_{F}A_{F}nGCGnnG_{F}A_{F}A_{Me}nnA_{Me}nWYC_{F}C_{F}C_{F}nnCAG_{Me}nCAnC_{F}A_{Me}C_{F}; 2'-F and 2'-OMe units, modified bases n, W, Y undefined, 3' idT, as printed in the source, key not given here) |  |  |  |  |  | most similar to that of 12-12 | highest

From US12668803B2, “Glypican-3-specific modified aptamer and use thereof” (APTAMER SCIENCES INC., priority 2019, dated 2026)
